Assay results reported in patent publication US6858714B2, “Cyclic GMP phosphodiesterase” (Incyte Corporation, priority 1997, dated 2005).

Assays:
PDE9A [1] = target: T1, PDE9A (Homo sapiens, UniProt O76083); test: Effect of known PDE inhibitors on PDE9A activity (hydrolysis of 3H-cGMP); type: biochemical; settings: cGMP as substrate, FIG. 5; for inhibition of PDE9A activity: up to 100 μM of inhibitor
T1 construct: A 1.8 kb region of PDE9A encoding the full length protein (nucleotides 61-1842) was amplified and cloned; made in house; host or cells: Sf9 insect cells (baculovirus, pFASTBAC)
T1 sequence (O76083 whole entry): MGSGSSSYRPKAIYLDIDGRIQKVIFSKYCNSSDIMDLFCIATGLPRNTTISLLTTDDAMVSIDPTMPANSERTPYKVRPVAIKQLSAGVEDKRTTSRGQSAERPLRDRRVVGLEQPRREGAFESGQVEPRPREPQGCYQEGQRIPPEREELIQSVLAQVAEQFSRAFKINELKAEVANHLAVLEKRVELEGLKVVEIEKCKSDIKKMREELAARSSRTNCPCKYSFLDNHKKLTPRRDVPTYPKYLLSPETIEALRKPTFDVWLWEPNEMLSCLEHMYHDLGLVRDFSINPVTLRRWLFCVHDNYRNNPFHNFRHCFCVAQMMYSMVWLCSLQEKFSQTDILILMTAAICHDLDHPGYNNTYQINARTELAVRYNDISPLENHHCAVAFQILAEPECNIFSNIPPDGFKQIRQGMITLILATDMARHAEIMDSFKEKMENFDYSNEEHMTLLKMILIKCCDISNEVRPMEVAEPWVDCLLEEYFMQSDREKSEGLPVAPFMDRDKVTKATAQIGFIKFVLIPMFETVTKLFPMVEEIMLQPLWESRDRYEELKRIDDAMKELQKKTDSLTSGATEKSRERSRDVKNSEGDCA
Experimental: A 1.8 kb region of PDE9A encoding the full length of the protein was cloned into the baculovirus transfer vector pFASTBAC, expressed in sf9 cells, and a cell lysate prepared from these cells for enzyme assays. […] PDE9A was not inhibited by up to 100 μM of rolipram (inhibitor of PDE4), dipyridamole (inhibitor of PDE2, 4, 5, and 6), SKF94120 (inhibitor of PDE3), vinpocetine (inhibitor of PDE1), or IBMX (non-specific PDE inhibitor). […] Of particular note is the expression of PDE9A in Crohn's disease.
PDE9A to be used for assay was prepared from transfected Sf9 cells. Cells were harvested by centrifugation, resuspended in homogenization buffer (20 mM Tris-HCl, 2 mM benzamidine, 1 mM EDTA, 0.25 M sucrose, 100 uM PMSF, pH 7.5 ) at 1×10^7 cells/ml, and disrupted using a Branson sonicating probe (3×10 second pulses). Cellular debris was removed by centrifugation at 14,000×g for 10 minutes. The supernatant was stored at −70° C.
PDE activity was assayed by measuring the conversion of ^3H-cGMP to ^3H-guanosine in the presence of PDE9A and 5′ nucleotidase. A one-step assay was run using a 100 uL assay containing 50 mM Tris-HCl pH 7.5, 10 mM MgCl^2, 0.1 unit 5′ nucleotidase (from Crotalus atrox venom), and 0.0064-2.0 uM ^3H-cGMP. The reaction was started by the addition of 25 μl of diluted enzyme supernatant. Reactions were run directly in mini Poly-Q scintillation vials (Beckman Instruments Inc., Fullerton Calif.). Assays were incubated at 37° C. for a time period that would yield less than 15% cGMP hydrolysis in order to avoid non-linearity associated with product inhibition. The reaction was stopped by the addition of 1 ml of Dowex AG1x8 (Cl form) resin (1:3 slurry). Three ml of scintillation fluid were added, and the vials were mixed. The resin in the vials was allowed to settle for 1 hr before counting. Soluble radioactivity associated with ^3H-guanosine was quantitated using a Beta scintillation counter. The amount of radioactivity recovered is proportional to the activity of PDE9A in the reaction.

PDE9A [2] = target: T1, PDE9A; test: Kinetics of enzyme activity of recombinant PDE9A (Lineweaver-Burke analysis); type: biochemical; settings: FIG. 3, read-out: Km of PDE9A for cGMP as substrate

Compound	inhibition of PDE9A activity (PDE9A [1])	also measured
CC(C)Cn1c(=O)n(C)c(=O)c2[nH]cnc21 [IBMX]	not inhibited	
Nc1nc2c(ncn2[C@@H]2O[C@@H]3COP(=O)(O)O[C@H]3[C@H]2O)c(=O)[nH]1 [cGMP]		Km (PDE9A [2]): 0.17 µM
CCCOc1ccccc1-c1nc2nn[nH]c2c(=O)[nH]1 [zaprinast]		IC50 (PDE9A [1]; recombinant PDE9A from Sf9 cell lysate, read-out: IC50 for inhibition of PDE9A): 35 µM
CC(=O)Nc1ccc(-c2c[nH]c(=O)cn2)cc1 [SKF94120]	not inhibited	

Now from value to compound, other results behind:

inhibition of PDE9A activity (PDE9A [1])	Compound	also measured
not inhibited	CCOC(=O)C1=C[C@]2(CC)CCCN3CCc4c(n1c1ccccc41)[C@@H]32 [vinpocetine]	
not inhibited	OCCN(CCO)c1nc(N2CCCCC2)c2nc(N(CCO)CCO)nc(N3CCCCC3)c2n1 [dipyridamole]	
not inhibited	COc1ccc(C2CNC(=O)C2)cc1OC1CCCC1 (stereo not shown) [rolipram]	
